This note sets out measurements from PMC11845477, “Exploring the principles behind antibiotics with limited resistance” (Nature Communications, 2025).

Experiment [1] relates to T1, P. aeruginosa ATCC BAA-3107.
T1 construct: ATCC BAA-3107
Put plainly: microbe, parasite or virus in culture. The arrangement: Serial broth microdilution MIC (CLSI), OD600 below 0.05, 384-well plates, MHB medium. Conditions: Pseudomonas aeruginosa, ATCCBAA3107, 18 h; ancestor strain before evolution. On the procedure:
(§1) A final concentration of 5 × 10^5 bacterial cells per mL were inoculated into each well containing 60 µL MHB medium. Bacterial cultures were incubated at 37 °C with continuous shaking (Infors shaker, 900 rpm with 3 mm throw) for 18 hours (2 replicates from each). Cell growth was monitored by measuring the optical density (OD600 values, using Biotek Synergy microplate reader). MIC was defined as the antibiotic concentration of complete growth inhibition (i.e., OD600 < 0.05). Relative MIC was calculated as follows:1 relativeMIC=MICevolved/MICancestor This study focused on multiple bacterial strains, as follows. For the FoR and ALE experiments, 2 strains per species were chosen: E. coli ATCC 25922, K. pneumoniae ATCC 10031, A. baumannii ATCC 17978, and P. aeruginosa ATCC BAA-3107 as sensitive (SEN) strains, and E. coli NCTC13846, K. pneumoniae ATCC 700603, A. baumannii ATCC BAA-1605 and P. aeruginosa LESB58 as multi-drug resistant (MDR) strains. Functional metagenomic screens were performed with E. coli ATCC 25922 and K. pneumoniae ATCC 10031 strains. To determine the dose-kill properties of the different antibiotics, an E. coli strain (ATCC 25922) expressing a yellow fluorescent protein (pZS2R, YFP, CHL^R) and a red fluorescent protein (pZS2R, mCherry, CHL^R) was used.

Experiment [2] concerns T2, Pseudomonas aeruginosa ATCC BAA 3107.
T2 construct: ATCC BAA-3107
The experiment in a line: microbe, parasite or virus in culture. Conditions: Pseudomonas aeruginosa, BAA3107, 18 h; read-out: MIC of ancestor. The arrangement: CLSI broth microdilution MIC; OD600 < 0.05 counted as complete growth inhibition. On the procedure:
as §1

Turning to `Nc1nc(-n2cc(C(=O)O)c(=O)c3cc(F)c(N4CC(O)C4)c(Cl)c32)c(F)cc1F` [Delafloxacin], the MIC in experiment [1] and in experiment [2] was 0.0156 µg/mL each time.
